From ChEMBL document CHEMBL1122165, “Retinoids at the threshold: their biological significance and therapeutic potential” (J Med Chem, 1982)

Columns and labels:
Mus musculus [1] = test: Lowest daily intraperitoneal dose causing hypervitaminosis A symptoms was determined in a 2-week period in mice; type: functional
Mus musculus [2] = test: Antipapilloma activity was determined after intraperitoneal administration in mice; type: functional; details: ip

SMILES	Dose (Mus musculus [1]) [mg/kg]	ED50 (Mus musculus [2]) [mg/kg]
CCOC(=O)c1ccc(/C=C(\C)c2ccc3c(c2)C(C)(C)CCC3(C)C)cc1 [AROTINOID]	0.1	0.05
CC1=C(/C=C/C(C)=C/C=C/C(C)=C/C(=O)O)C(C)(C)CCC1 [TRETINOIN]	80	400
CCOC(=O)/C=C(C)/C=C/C=C(C)/C=C/c1c(C)cc(OC)c(C)c1C [ETRETINATE]	50	25
CCOC(=O)/C=C(C)/C=C/C=C(C)/C=C/c1c(C)sc(C)c1C	200	75
CCOC(=O)/C=C(C)/C=C/C=C(C)/C=C/c1c(Cl)cc(OC)c(C)c1Cl	12	6
CC1=C(/C=C/C(C)=C/C=C/C(C)=C\C(=O)O)C(C)(C)CCC1 [ISOTRETINOIN]	400	800
COc1cc(C)c(/C=C/C(C)=C/C=C(F)/C(C)=C/C(=O)O)c(C)c1C	25	11.5
